Measurements from patent publication US12263248B2, “Compounds and compositions for intracellular delivery of therapeutic agents” (ModernaTX, Inc., priority 2018, dated 2025).

Columns and labels:
[1] = tested on: luciferase (Luc) mRNA; test: Luc expression, whole body bioluminescence after intravenous administration to mice; assay type: in vivo; conditions: for Fold increase in total body Luc Flux relative to MC3 at 6 h: Table 3A, i.v. administration; for Total Flux 3 hours / Total Flux 6 hours / Total Flux 24 hours: mice, i.v., 0.5 mg/kg, Luc mRNA
Method: In order to monitor how effectively various nanoparticle compositions deliver therapeutic and/or prophylactics to targeted cells, different nanoparticle compositions including a particular therapeutic and/or prophylactic (for example, a modified or naturally occurring RNA such as an mRNA) are prepared and administered to rodent populations. Mice are intravenously, intramuscularly, intraarterially, or intratumorally administered a single dose including a nanoparticle composition with a formulation such as those provided in Example 3. In some instances, mice may be made to inhale doses. Dose sizes may range from 0.001 mg/kg to 10 mg/kg, where 10 mg/kg describes a dose including 10 mg of a therapeutic and/or prophylactic in a nanoparticle composition for each 1 kg of body mass of the mouse. A control composition including PBS may also be employed.
Upon administration of nanoparticle compositions to mice, dose delivery profiles, dose responses, and toxicity of particular formulations and doses thereof can be measured by enzyme-linked immunosorbent assays (ELISA), bioluminescent imaging, or other methods. For nanoparticle compositions including mRNA, time courses of protein expression can also be evaluated. Samples collected from the rodents for evaluation may include blood, sera, and tissue (for example, muscle tissue from the site of an intramuscular injection and internal tissue); sample collection may involve sacrifice of the animals.
The efficacy of the nanoparticle compositions presented in Table 1A was evaluated with a bioluminescence study. Formulations were administered intravenously to mice (n=6) at a dosage of 0.5 mg/kg (mpk) and bioluminescence measured at 3, 6, and 24 hour time points. The standard MC3 formulation and, in some instances, a control (e.g., a PBS control) were evaluated for comparison. […] In general, flux decreased as time progressed to less than 10% of the initial flux.
(§1) Whole body and ex vivo organ bioluminescent imaging of mice: CD-1 mice were injected 15 minutes prior to the imaging timepoint intraperitoneally (IP) with 200 μL Xenolight D-luciferin K+ salt, diluted in PBS just prior to use to a concentration of 15 mg/mL. Ex vivo imaging of organs was completed within 25 minutes of luciferin administration. All images were quantified by region of interest for total flux.

[2] = Encapsulation efficiency of RNA (QUANT-IT RIBOGREEN RNA assay); assay type: physicochemical; conditions: Table 1A
Method: For nanoparticle compositions including an RNA, a QUANT-IT™ RIBOGREEN® RNA assay (Invitrogen Corporation Carlsbad, CA) can be used to evaluate the encapsulation of an RNA by the nanoparticle composition. The samples are diluted to a concentration of approximately […] in a TE buffer solution (10 mM Tris-HCl, 1 mM EDTA, pH 7.5). 50 μL of the diluted samples are transferred to a polystyrene 96 well plate and either 50 μL of TE buffer or 50 μL of a 2% Triton X-100 solution is added to the wells. The plate is incubated at a temperature of 37° C. for 15 minutes. The RIBOGREEN® reagent is diluted 1:100 in TE buffer, and 100 μL of this solution is added to each well. The fluorescence intensity can be measured using a fluorescence plate reader (Wallac Victor 1420 Multilabel Counter; Perkin Elmer, Waltham, MA) at an excitation wavelength of, for example, about 480 nm and an emission wavelength of, for example, about 520 nm. The fluorescence values of the reagent blank are subtracted from that of each of the samples and the percentage of free RNA is determined by dividing the fluorescence intensity of the intact sample (without addition of Triton X-100) by the fluorescence value of the disrupted sample (caused by the addition of Triton X-100).

[3] = Apparent (surface) pKa of the LNP formulation (TNS assay); assay type: physicochemical; conditions: Table 1A
Method: Using sodium hydroxide (1 M) and hydrochloric acid (1 M), 21 unique buffers were prepared from the master buffer stock at pH values between about 3 and 12. Next, a stock of 300 μM 6-(p-Toluidino)-2-naphthalenesulfonic acid sodium salt (TNS reagent) in DMSO was prepared and the LNP was mixed with the desired formulation buffer at a concentration of 0.04 mg/mL mRNA. This assay has been validated in 1× PBS and 20 mM Tris w/8% sucrose buffer. The buffer solutions at various pH values were added to a 96-well plate in triplicate for each pH. To each well was added 3.26 μL of LNP sample at a mRNA concentration of 0.04 mg/mL and 2.0 μL of 300 μM TNS reagent solution. After careful mixing, the resulting fluorescence values were read for each plate to create a sigmoidal plot of the fluorescence values vs. buffer pH. The […] inflection point of this curve is the apparent pKa of the LNP formulation.

[4] = Particle size and polydispersity index of nanoparticle compositions (Zetasizer Nano ZS); assay type: physicochemical; conditions: Table 1A; for Size (nm): lipid:DSPC:cholesterol:PEG-DMG 50:10:38.5:1.5 mol %
Method: A Zetasizer Nano ZS (Malvern Instruments Ltd, Malvern, Worcestershire, UK) can be used to determine the particle size, the polydispersity index (PDI) and the zeta potential of the nanoparticle compositions in 1×PBS in determining particle size and 15 mM PBS in determining zeta potential.

[5] = tested on: luciferase (Luc) mRNA; test: Luc expression in liver, lung, spleen and femur 6 hours after intravenous administration; assay type: in vivo; conditions: mice, 0.5 mpk; for Total Flux Liver / Total Flux Lung / Total Flux Spleen: intravenous
Method: The efficacy of the nanoparticle compositions presented in Table 1A was further evaluated by measuring the expression of modified luciferase in the liver, lung, spleen, and femur upon administration of a given composition. Formulations were administered intravenously to mice (n=3) at a dosage of 0.5 mpk and bioluminescence measured after 6 hours. The standard MC3 formulation and a PBS control were also tested. […] Flux in the liver was lowest for compositions including Compounds 58, 59, 137, and 141. Flux in the spleen was highest for compositions including Compounds 4, 7, 33, 34, 48, 53, 108, 129, 130, and 148, and lowest for compositions including Compounds 9, 59, 124, and 141.
as §1

Row | SMILES | Fold increase in total body Luc Flux relative to MC3 at 6 h [1] | Total Flux 3 hours [1] | Total Flux 6 hours [1] | Total Flux 24 hours [1] | EE (%) [2] [%] | pKa [3] | PDI [4] | Size (nm) [4] [nm] | Total Flux Liver [5] | Total Flux Lung [5] | Total Flux Spleen [5] | Flux in the liver ([5]; i.v., in words) | Flux in the spleen ([5]; i.v., in words)
1 | CCCCCCCCC(CCC)OC(=O)CCCN(CCO)CCCCCCCC(=O)OC(CCCCCCCC)CCCCCCCC (centres unmarked) [Compound 74, Heptadecan-9-yl 8-((4-(dodecan-4-yloxy)-4-oxobutyl)(2-hydroxyethyl)amino)octanoate] | 1.005 | 3.27E+10 | 2.23E+10 | 2.75E+08 | 97 | 6.08 | 0.15 | 65.6 | 1.99E+09 | 6.93E+06 | 2.26E+07 | – | –
2 | CCCCCCCCC(CCCCCCCC)OC(=O)CCCCCCCN(CCO)CCCCCC(=O)OC1CCC(CCCCC)CC1 (centres unmarked) [Compound 68, Heptadecan-9-yl 8-((2-hydroxyethyl)(6-oxo-6-((4-pentylcyclohexyl)oxy)hexyl)amino)octanoate] | 3.68 | 5.22E+10 | 8.16E+10 | 2.15E+09 | 97.7 | 6.69 | 0.14 | 76.8 | 8.42E+09 | 3.98E+07 | 6.69E+07 | – | –
3 | CCCCCCCCC(CCCCCCCC)OC(=O)CCCCCCCN(CCO)CCCC(=O)OC1CCC(CCCCC)CC1 (centres unmarked) [Compound 67, Heptadecan-9-yl 8-((2-hydroxyethyl)(4-oxo-4-((4-pentylcyclohexyl)oxy)butyl)amino)octanoate] | 2.08 | 4.24E+10 | 4.62E+10 | 4.51E+08 | 98 | 6.38 | 0.13 | 77 | 3.60E+09 | 1.68E+07 | 2.55E+07 | – | –
4 | CCCCCCCCCOC(=O)CCCCCCCN(CCO)CCCCCCCC(=O)OC(CCCCC)CCCCCCCC (centres unmarked) [Compound 33, nonyl 8-((2-hydroxyethyl)(8-oxo-8-(tetradecan-6-yloxy)octyl)amino) octanoate] | 2.74 | 6.53E+10 | 1.20E+11 | 3.71E+09 | 95.66 | 6.80 | 0.13 | 107.3 | 1.78E+10 | 2.92E+07 | 3.77E+08 | highest | highest
5 | CCCCCCCCCOC(=O)CCCCCCCN(CCO)CCCCCCCC(=O)Oc1ccc(CCCCC)cc1 [Compound 119, Nonyl 8-((2-hydroxyethyl)(8-oxo-8-(4-pentylphenoxy)octyl)amino)octanoate] | – | 1.02E+07 | 3.74E+07 | – | 98.1 | 5.29 | 0.24 | 60.8 | – | – | – | – | –
6 | CCCCCCCCC(CCCCCCCC)OC(=O)CCCCCCCN(CCO)CCCCCCCC(=O)OC(CCCCCCCC)C1CC1 (centres unmarked) [Compound 65, 1-Cyclopropylnonyl 8-((8-(heptadecan-9-yloxy)-8-oxooctyl)(2-hydroxyethyl)amino)octanoate] | 3.16 | 6.56E+10 | 7.01E+10 | 7.50E+08 | 98.2 | 6.36 | 0.12 | 63.9 | 9.56E+09 | 3.79E+07 | 6.57E+07 | – | –
7 | CCCCCCCCCOC(=O)CCCCCCCN(CCCCCCCC(=O)OC(CCCCCCCC)CCCCCCCC)CCCNC(=O)OC [Compound 181, Heptadecan-9-yl 8-((3-((methoxycarbonyl)amino)propyl)(8-(nonyloxy)-8-oxooctyl)amino)octanoate] | – | – | – | – | 88.9 | 6.17 | 0.12 | 78.7 | – | – | – | – | –
8 | CCCCCCCCCOC(=O)CCCCCCCN(CCCCCCCC(=O)OC(CCCCCCCC)CCCCCCCC)Cc1ccccc1 [Compound 94, Heptadecan-9-yl 8-(benzyl(8-(nonyloxy)-8-oxooctyl)amino)octanoate] | – | – | – | – | 0 | 4.43 | 0.24 | 62.4 | – | – | – | – | –
9 | CCCCCCCCCOC(=O)CCCCCCCN(CCCCCCCC(=O)OC(CCCCCCCC)CCCCCCCC)CCCn1cnc2c(N)ncnc21 [Compound 116, Heptadecan-9-yl 8-((3-(6-amino-9H-purin-9-yl)propyl)(8-(nonyloxy)-8-oxooctyl)amino)octanoate] | – | 3.13E+07 | 3.86E+07 | – | 99.4 | 5.66 | 0.14 | 63.3 | – | – | – | – | –
10 | CCCCCCCCCOC(=O)CCCCCCCN(CCCCCCCC(=O)OC(CCCCCCCC)CCCCCCCC)CCCC(F)(F)F [Compound 107] | – | – | – | – | 0 | 4.802 | 0.74 | 55 | – | – | – | – | –
11 | CCCCCCCCCOC(=O)CCCCCCCN(CCCCCCCC(=O)OC(CCCCCCCC)CCCCCCCC)CCCn1ccnn1 [Compound 179, Heptadecan-9-yl 8-((3-(1H-1,2,3-triazol-1-yl)propyl)(8-(nonyloxy)-8-oxooctyl)amino)octanoate] | – | – | – | – | 94.7 | 6.16 | 0.11 | 71.6 | – | – | – | – | –
12 | CCCCCCCCCOC(=O)CCCCCCCN(CCCCCCCC(=O)OC(CCCCCCCC)CCCCCCCC)CCCNC(=O)CO [Compound 198, Heptadecan-9-yl 8-((3-(2-hydroxyacetamido)propyl)(8-(nonyloxy)-8-oxooctyl)amino)octanoate] | – | – | – | – | 99.5 | 7.62 | 0.24 | 84.2 | – | – | – | – | –
